The values that follow are results of earlier work, collected in US7286970B2, “Computational model, method, and system for kinetically-tailoring multi-drug chemotherapy for individuals” (The Regents of the University of California, priority 2002, dated 2007).

The structures appear in SMILES notation. Marks after values point to notes of the source that are not given here.

The conditions of the data set: for Plasma Half-life: in vivo.

`O=P1(N(CCCl)CCCl)NCCCO1` (centres unmarked) [Cyclophosphamide, cyclophosphamide]: the “Plasma Half-life” value is listed as 4^d h.

Turning to `CN(Cc1cnc2nc(N)nc(N)c2n1)c1ccc(C(=O)N[C@@H](CCC(=O)O)C(=O)O)cc1` [Methotrexate, methotrexate], the “Plasma Half-life” value was 8^d h.

Take `O=c1[nH]cc(F)c(=O)[nH]1` [5-Fluorouracil, 5-fluorouracil]: the half-life entry is “about 15 min”.

`COc1cccc2c1C(=O)c1c(O)c3c(c(O)c1C2=O)C[C@@](O)(C(=O)CO)C[C@@H]3O[C@H]1C[C@H](N)[C@H](O)[C@H](C)O1` [Doxorubicin, doxorubicin]: the “Plasma Half-life” value is given as 25^d h.

`CC/C(=C(\c1ccccc1)c1ccc(OCCN(C)C)cc1)c1ccccc1` [Tamoxifen, tamoxifen]: the “Plasma Half-life” value is 10^e h.
